Literature values, collected in patent US20130183383A1, “PHARMACEUTICAL COMPOSITIONS FOR CALANOLIDES, THEIR DERIVATIVES AND ANALOGUES, AND PROCESS FOR PRODUCING THE SAME” (Craun Research SDN BHD, priority 2010, published 2013).

Settings: soft gelatin capsules containing 100 mg (+)-calanolide A in oil-based / sesame oil-based vehicle

In the case of `CCCc1cc(=O)oc2c3c(c4c(c12)OC(C)(C)C=C4)O[C@H](C)[C@@H](C)[C@@H]3O` [calanolide A, (+)-Calanolide A], the Bioavailability is listed as “poor bioavailability”.
